Test results from EP0192317A1, “Homocarnosine or acylhomocarnosine salts” (HAMARI YAKUHIN KOGYO KABUSHIKI KAISHA also known as HAMARI …, priority 1985, dated 1986).

Tests used:
[1] = system: Water-immersion stress ulcer; experiment: Water-immersion stress ulcer; type: in vivo, Male JCI-SD strain rats; settings: for Ulcer Index (mm): 400 mg/kg orally 30 minutes before 7 hours immersion in 23°C water, sum of the lengths of the lesions in the body of the stomach; for Inhibition (%): 400 mg/kg orally, inhibition of water-immersion stress ulcer versus No drug
Experimental: After a fasting period of 24 hours, 400 mg/kg of each test compound was orally administered to each animal, and after 30 minutes, the animal was immobilized in a stress cage and was immersed in 23°C water down to the level of the thorax for 7 hours. After this stress loading, the rats was exsanguinated by decapitation and the stomach was excised and fixed in 1% formalin for 15 minutes. Then, an incision was made from the pyrolus along the greater curvature and the lengths of the lesions formed in the body of the stomach were measured using a dissecting microscope (with a scale graduated in 1/100 cm). The sum of the lengths was used as the ulcer index.

Wistar strain rats = experiment: Acute toxicity study; type: in vivo; settings: orally 5 g/kg, observed for 7 days, rats of either sex
Excerpt: Wistar strain rats of either sex weighing 150 to 200 g were used in groups of 7 animals.

wound = experiment: Wound healing-promoting activity (tension required for separating the back skin wound); type: in vivo, Male rats; settings: for Tension: 10 g in 20 ml of peanut oil, 0.05 ml per dose once daily for 10 consecutive days, tension required for separating the wound
Experimental: 2. Wound healing-promoting activity (Method)
Male rats weighing about 180 g-were used in groups of 9 animals. The hair on the back of each rat was clipped with an electric clipper and under ether anesthesia, a wound (20 mm long) was made with a chisel having a 20 mm edge in two positions of the cropped back. A suspension of each test compound (10 g) in 20 ml of peanut oil was applied to the wound in a volume of 0.05 ml per dose once daily for 10 consecutive days. After 10 days, the animal was bled to death by decapitation and the skin of the back was peeled until the wound was separated. The tension (grams) required for separating the wound was measured as an indicator of drug efficacy.

[2] = system: Pyrolic ligation-induced ulcer; experiment: Pyrolic ligation-induced ulcer (Shay method); type: in vivo, Male Wistar strains rats; settings: for Inhibition (%): 300 mg/kg intraduodenally immediately after ligation, ulcer in the fore-stomach 13 hours after administration
Experimental: (b) Pyrolic ligation-induced ulcer
Male Wistar strains rats weighing about 300 g were deprived of food for 20 hours, with provision against fecal feeding, and used in groups of 8 animals. The pyrolus of each animal was ligated under ether anesthesia according to the method described by Shay et al. [H.G. Shay, S.A. Komarow, S.S. Felds, D. Meranze, M. Gruenstein, and H. Siplet, Gastroenterology, 5, 43 (1945)], and 300 mg/kg of each test compound was immediately administered intraduodenally. The incision was sutured and 13 hours after drug administration the rat was sacrified by cervical dislocation. The stomach was excised, slightly inflated by an injection of 1% formalin solution, immersed in the same solution for 15 minutes to fix the gastric wall, and then opened along the greater curvature. The ulcer in the fore-stomach was measured under a dissecting microscope .to calculate the ulcer index and the efficacy of the drug was expressed in terms of percent ulcer index.

| Compound | Ulcer Index (mm) [1] [mm] | Inhibition (%) [1] [%] | death (Wistar strain rats) | Tension (wound) [g] | Inhibition (%) [2] [%] | wound healing-promoting effect (in words) (wound; summary of Table III) | antiulcer potency among the compounds tested (in words) ([2]; summary of Tables I and II) |
| --- | --- | --- | --- | --- | --- | --- | --- |
| CN/C(=N/CCSCc1nc[nH]c1C)NC#N [Cimetidine, reference compound] | 4.02 | 60.7 | – | – | – | – | – |
| NCCCC(=O)N[C@@H](Cc1cnc[nH]1)C(=O)O [Homocarnosine, L-homocarnosine] | 8.81 | 13.9 | No death | 218.78 | 6.2 | – | – |
| CC(=O)NCCCC(=O)N[C@@H](Cc1cnc[nH]1)C(=O)O [N-Acetyl-L-Homocarnosine, N-acetyl-L-homocarnosine, reference compound] | 9.95 | 6.7 | No death | 207.45 | 2.4 | – | – |
| (L-homocarnosine)2 zinc salt [(Homocarnosine)2 Zn] | 6.34 | 38.0 | – | – | – | – | – |
| (N-acetyl-L-homocarnosine)2 zinc salt [(N-Acetyl-L-Homocarnosine)2 Zn] | 8.32 | 18.7 | – | – | – | – | – |
| Basic aluminum sucrose sulfate [reference compound] | 8.54 | 16.6 | – | – | 4.7 | – | – |
| Carnosine Zn [reference compound] | 4.61 | 54.9 | – | – | 39.2 | – | – |
| L-homocarnosine aluminum salt [(Homocarnosine)2 AlOH] | 7.76 | 24.2 | – | – | – | – | – |
| L-homocarnosine aluminum salt [(Homocarnosine)3 Al] | 8.24 | 19.5 | – | – | – | – | – |
| L-homocarnosine aluminum salt [Homocarnosine Al(OH)2] | 7.10 | 30.6 | – | 220.28 | 11.2 | – | – |
| L-homocarnosine zinc salt [Homocarnosine Zn] | 3.85 | 62.4 | – | 249.36 | 46.2 | particularly excellent | the most potent |
| N-acetyl-L-homocarnosine aluminum salt [(N-Acetyl-L-Homocarnosine)2 Al] | 8.46 | 17.3 | – | – | – | – | – |
| N-acetyl-L-homocarnosine aluminum salt [N-Acetyl-L-Homocarnosine Al(OH)2] | 5.40 | 47.2 | – | 203.57 | 38.7 | – | – |
| N-acetyl-L-homocarnosine zinc salt [N-Acetyl-L-Homocarnosine Zn] | 7.06 | 31.0 | – | 233.64 | 22.1 | – | – |
